According to patent US9739765B2, “Metal-based covalent viability reagent for single cell analysis” (The Board of Trustees of the Leland Stanford Junior …, priority 2013, dated 2017):

How the values were obtained:
KG-1 cells = assay: Cisplatin viability labeling of partially heat-killed KG-1 cells, mass cytometry; assay type: cell-based, human; conditions: KG-1 cells spiked with approximately 30% heat-killed cells; 1 min cisplatin at 10, 50, or 250 μM (all doses)
Method: Generation of non-viable control cells. To generate samples with known amounts of non-viable cells, an aliquot of cultured cells was heat-killed at 55° C. for 1 hour, cooled to 37° C. and then spiked into each culture of viable cells at known percentages based on Trypan blue exclusion staining. Samples were then prepared for fluorescence and mass cytometry and the live/dead ratio of cells determined by each technology.
Cisplatin exposure. Cisplatin (WR International, Radnor, Pa., Cat #89150-634) was stored at −80° C. as a stock solution of 100 mM in DMSO (Hybrimax, Sigma Aldrich, St Louis, Mo.). Working solutions (10 mM) were prepared fresh on the day of each experiment by diluting the stock solution into PBS at 4° C. […]
(§1) Mass cytometry measurement. Cells were analyzed on a CyTOF® mass cytometer (DVS Sciences, Richmond Hill, Ontario, Canada). […] Cells were measured at approximately 500 cells per second, noise reduction was activated and cell extraction parameters were set to: Cell length, range was set from 10 to 65 pushes, and the lower convolution threshold was set to 10.
Comparison between fluorescence and mass cytometry protocols. […] In the first experiment a suspension of human myeloid KG-1 cells spiked with approximately 30% of heat-killed KG-1 cells (determined by Trypan blue extrusion), was tested with Aqua and cisplatin. […]

[1] = system: Jurkat, KG-1, HeLa, OVCAR3 cell lines; assay: Cisplatin viability labeling of suspension and adherent cell lines spiked with heat-killed cells, mass cytometry; assay type: cell-based
Method: Cell culture. The cancer cell lines Jurkat (T acute lymphoblastic leukemia suspension cells) and OVCAR-3 (ovarian carcinoma adherent cells) were cultured in RPMI-1640 (GIBCO, Invitrogen, Carlsbad, Calif.) with 10% heat-inactivated fetal bovine serum (FBS), 2 mM L-glutamine and 100 U/ml penicillin. The suspension cell lines KG-1 (acute myeloid leukemia) and HL-60 (acute myeloid leukemia cells) were cultured in IMDM (GIBCO, Invitrogen, Carlsbad, Calif.) with 20% heat-inactivated FBS and 100 U/ml penicillin. The adherent cell line HeLa (cervical carcinoma) was cultured in DMEM (GIBCO, Invitrogen, Carlsbad, Calif.) with 10% heat-inactivated FBS and 100 U/ml penicillin. All cell lines were maintained at 37° C. in a humidified 5.0% CO2 environment. Peripheral blood from healthy donors was purchased from the Stanford Blood Bank according to an IRB-approved protocol. […] Samples were then prepared for fluorescence and mass cytometry and the live/dead ratio of cells determined by each technology. […] Cells were analyzed on a CyTOF® mass cytometer (DVS Sciences, Richmond Hill, Ontario, Canada). […] Cells were measured at approximately 500 cells per second, noise reduction was activated and cell extraction parameters were set to: Cell length, range was set from 10 to 65 pushes, and the lower convolution threshold was set to 10. […]

[2] = system: phosphorylation of SLP-76 (Y128) and SLP-65 in PBMCs; assay: Pervanadate stimulation of cisplatin-labeled PBMCs, pSLP-76/65 signaling; assay type: cell-based; conditions: myeloid cells, T cells and B cells of PBMCs; 125 μM, 15 min
Method: Pervanadate stimulation of PBMCs. Frozen PBMCs were thawed at 37° C. and resuspended in RPMI-1640/10% FBS/2 mM EDTA. A fraction of the PBMCs (30%) was heat-killed separately and spiked back in, as described above. Cells were treated with cisplatin according to the standard protocol described above, at 10^6 cells/ml. Samples were then treated with activated sodium orthovanadate at a final concentration of 125 μM for 15 min at 37° C. Cells were fixed with 1.6% (final concentration) PFA for 10 min at room temperature.
Antibody staining. […]
as §1
Cisplatin as a viability indicator for primary samples. […] Therefore to evaluate signaling in PBMCs, phosphorylation of SLP-76 (Y128) (T cells and myeloid cells) and SLP-65 (Y76) (B cells) was determined after a […] exposure to vanadate, a global tyrosine phosphatase inhibitor, shown to increase intracellular kinase activity and phosphotyrosine levels.

Row | Compound | frequency of cisplatin positive (dead) cells (KG-1 cells) | signal-to-noise ratios separating live and dead cells ([1]; 1-minute pulse protocol, routinely observed (FIG. 2-5)) | signal-to-noise ratios, cisplatin-high (dead) vs cisplatin-low (live) populations ([1]; each cisplatin concentration (10, 50, 250 μM), HeLa, OVCAR3, Jurkat, KG-1) | SLP-76/65 phosphorylation in response to pervanadate, cisplatin-high populations [2] | SLP-76/65 phosphorylation in response to pervanadate, cisplatin-low populations [2]
1 | N.N.[Cl][Pt][Cl] [cisplatin, Cisplatin [Pt(NH3)2Cl]] | 26-28% | greater than 10 fold | above 10 | – | –
2 | activated sodium orthovanadate [pervanadate] | – | – | – | no response | strong increase
